Laboratory results: article PMC7162861, “Synthesis, cytotoxicity, pharmacokinetic profile, binding with DNA and BSA of new imidazo[1,2-a]pyrazine-benzo[d]imidazol-5-yl hybrids” (Scientific Reports, 2020)

Assays:
[1] = tested on: NCI-H226; test: NCI cytotoxicity screen, Non-Small Cell Lung Cancer panel; assay type: cell-based, human; details: Homo sapiens, single dose 10 µM, negative = lethal, read-out: Percent growth inhibition
Protocol: (§1) Cytotoxicity was performed at National Cancer Institute (NCI), Bethesda, USA as per their protocols.

[2] = tested on: NCI-H23; test: as above; assay type: cell-based, human; details: Homo sapiens, single dose 10 µM, negative = lethal, read-out: Percent growth inhibition
Protocol: as §1

[3] = tested on: NCI-522; test: as above; assay type: cell-based, human; details: Homo sapiens; NCI-522; single dose 10 µM; negative = lethal; read-out: Percent growth inhibition
Protocol: as §1

[4] = tested on: NCI-H322M; test: as above; assay type: cell-based, human; details: Homo sapiens, single dose 10 µM, negative = lethal, read-out: Percent growth inhibition
Protocol: as §1

[5] = tested on: HL-60(TB); test: NCI cytotoxicity screen, Leukemia panel; assay type: cell-based; details: Homo sapiens, HL-60, HL-60(TB); single dose 10 µM; negative = lethal; read-out: Percent growth inhibition
Protocol: as §1

[6] = tested on: CCRF-CEM; test: NCI cytotoxicity screen, Leukemia panel; assay type: cell-based; details: Homo sapiens, single dose 10 µM, negative = lethal, read-out: Percent growth inhibition
Protocol: as §1

[7] = tested on: SR; test: NCI cytotoxicity screen, Leukemia panel; assay type: cell-based; details: Homo sapiens, single dose 10 µM, negative = lethal, read-out: Percent growth inhibition
Protocol: as §1

[8] = tested on: MOLT-4; test: NCI cytotoxicity screen, Leukemia panel; assay type: cell-based; details: Homo sapiens, MOLT-4, MOLT-4; single dose 10 µM; negative = lethal; read-out: Percent growth inhibition
Protocol: as §1

[9] = tested on: IGROV1; test: NCI cytotoxicity screen, Ovarian Cancer panel; assay type: cell-based; details: Homo sapiens, IGROV-1, single dose 10 µM, negative = lethal, read-out: Percent growth inhibition
Protocol: as §1

[10] = tested on: NCI/ADR-RES; test: NCI cytotoxicity screen, Ovarian Cancer panel; assay type: cell-based; details: Homo sapiens, single dose 10 µM, negative = lethal, read-out: Percent growth inhibition
Protocol: as §1

[11] = tested on: OVCAR-8; test: NCI cytotoxicity screen, Ovarian Cancer panel; assay type: cell-based; details: Homo sapiens, single dose 10 µM, negative = lethal, read-out: Percent growth inhibition
Protocol: as §1

[12] = tested on: OVCAR-5; test: NCI cytotoxicity screen, Ovarian Cancer panel; assay type: cell-based; details: Homo sapiens, single dose 10 µM, negative = lethal, read-out: Percent growth inhibition
Protocol: as §1

[13] = tested on: OVCAR-4; test: NCI cytotoxicity screen, Ovarian Cancer panel; assay type: cell-based; details: Homo sapiens; OVCAR-4; single dose 10 µM; negative = lethal; read-out: Percent growth inhibition
Protocol: as §1

[14] = tested on: SK-OV-3; test: NCI cytotoxicity screen, Ovarian Cancer panel; assay type: cell-based; details: Homo sapiens, single dose 10 µM, negative = lethal, read-out: Percent growth inhibition
Protocol: as §1

[15] = tested on: HCC-2998; test: NCI cytotoxicity screen, Colon Cancer panel; assay type: cell-based, human; details: Homo sapiens; HCC-2998; single dose 10 µM; negative = lethal; read-out: Percent growth inhibition
Protocol: as §1

[16] = tested on: SW-620; test: NCI cytotoxicity screen, Colon Cancer panel; assay type: cell-based, human; details: Homo sapiens, single dose 10 µM, negative = lethal, read-out: Percent growth inhibition
Protocol: as §1

[17] = tested on: KM12; test: NCI cytotoxicity screen, Colon Cancer panel; assay type: cell-based, human; details: Homo sapiens, single dose 10 µM, negative = lethal, read-out: Percent growth inhibition
Protocol: as §1

[18] = tested on: HS 578 T; test: NCI cytotoxicity screen, Breast Cancer panel; assay type: cell-based; details: Homo sapiens; HS 578T; single dose 10 µM; negative = lethal; read-out: Percent growth inhibition
Protocol: as §1

[19] = tested on: BT-549; test: NCI cytotoxicity screen, Breast Cancer panel; assay type: cell-based; details: Homo sapiens, single dose 10 µM, negative = lethal, read-out: Percent growth inhibition
Protocol: as §1

[20] = tested on: MCF7; test: NCI cytotoxicity screen, Breast Cancer panel; assay type: cell-based; details: Homo sapiens, single dose 10 µM, negative = lethal, read-out: Percent growth inhibition
Protocol: as §1

[21] = tested on: MDA-MB-231/ATCC; test: NCI cytotoxicity screen, Breast Cancer panel; assay type: cell-based; details: Homo sapiens, MDA-MB-231, read-out: Percent growth inhibition
Protocol: as §1

[22] = tested on: MDA-MB-468; test: NCI cytotoxicity screen, Breast Cancer panel; assay type: cell-based; details: Homo sapiens, single dose 10 µM, negative = lethal, read-out: Percent growth inhibition
Protocol: as §1

[23] = tested on: T-47D; test: NCI cytotoxicity screen, Breast Cancer panel; assay type: cell-based; details: Homo sapiens, T47D, T-47D; single dose 10 µM; negative = lethal; read-out: Percent growth inhibition
Protocol: as §1

[24] = tested on: RXF 393; test: NCI cytotoxicity screen, Renal Cancer panel; assay type: cell-based; details: Homo sapiens, single dose 10 µM, negative = lethal, read-out: Percent growth inhibition
Protocol: as §1

[25] = tested on: UO-31; test: NCI cytotoxicity screen, Renal Cancer panel; assay type: cell-based; details: Homo sapiens, single dose 10 µM, negative = lethal, read-out: Percent growth inhibition
Protocol: as §1

[26] = tested on: SN12C; test: NCI cytotoxicity screen, Renal Cancer panel; assay type: cell-based; details: Homo sapiens, single dose 10 µM, negative = lethal, read-out: Percent growth inhibition
Protocol: as §1

[27] = tested on: A498; test: NCI cytotoxicity screen, Renal Cancer panel; assay type: cell-based; details: Homo sapiens, single dose 10 µM, negative = lethal, read-out: Percent growth inhibition
Protocol: as §1

[28] = tested on: ACHN; test: NCI cytotoxicity screen, Renal Cancer panel; assay type: cell-based; details: Homo sapiens, single dose 10 µM, negative = lethal, read-out: Percent growth inhibition
Protocol: as §1

[29] = Experimental log P, shake-flask method; assay type: physicochemical; details: n-octanol/phosphate buffer pH 7.4, read-out: Exp. Log P
Protocol: Partition coefficients or experimental log P values of all synthesized compounds (9–23, 30 and 31) were calculated using the shake-flask method. Log P values were determined using n-octanol and phosphate buffer (pH = 7.4) at 10:1 ratio of volumes. Stock solutions (10^−3 M) of compounds were prepared in DMSO. Glass vials were used to make final solutions i.e. stock solution (250 µL) and phosphate buffer (125 µL). To record the absorbance, wavelength was selected based on λmax of the respective compound. Initial absorbance (Ai) for every compound was noted consuming the stock solution in the buffer phase. Now added n-octanol to every vial and shaken well using a mechanical shaker for 50 minutes. To get separation of both phases, glass vials were centrifuged for 35 min. at 2500 rpm. Then, the layer of octanol was separated from glass vial. The final absorbance (Af) of each compound was recorded by using the buffer layer. The values of P for compounds were determined by the following equation (Eq. 8):8 P=Ai−Af/Af×Vw/Vo

[30] = tested on: 786-0; test: NCI cytotoxicity screen, Renal Cancer panel; assay type: cell-based, human; details: Homo sapiens, single dose 10 µM, negative = lethal, read-out: Percent growth inhibition
Protocol: as §1

[31] = tested on: TK-10; test: NCI cytotoxicity screen, Renal Cancer panel; assay type: cell-based, human; details: Homo sapiens, single dose 10 µM, negative = lethal, read-out: Percent growth inhibition
Protocol: as §1

[32] = tested on: UACC-62; test: NCI cytotoxicity screen, Melanoma panel; assay type: cell-based, human; details: Homo sapiens, single dose 10 µM, negative = lethal, read-out: Percent growth inhibition
Protocol: as §1

[33] = tested on: M14; test: NCI cytotoxicity screen, Melanoma panel; assay type: cell-based, human; details: Homo sapiens, single dose 10 µM, negative = lethal, read-out: Percent growth inhibition
Protocol: as §1

[34] = tested on: LOX IMVI; test: NCI cytotoxicity screen, Melanoma panel; assay type: cell-based, human; details: Homo sapiens, single dose 10 µM, negative = lethal, read-out: Percent growth inhibition
Protocol: as §1

[35] = tested on: OVCAR-3; test: NCI cytotoxicity screen, Ovarian Cancer panel; assay type: cell-based, human; details: Homo sapiens; OVCAR-3; single dose 10 µM; negative = lethal; read-out: Percent growth inhibition
Protocol: as §1

[36] = tested on: DU-145; test: NCI cytotoxicity screen, Prostate Cancer panel; assay type: cell-based, human; details: Homo sapiens, single dose 10 µM, negative = lethal, read-out: Percent growth inhibition
Protocol: as §1

[37] = tested on: PC-3; test: NCI cytotoxicity screen, Prostate Cancer panel; assay type: cell-based, human; details: Homo sapiens, single dose 10 µM, negative = lethal, read-out: Percent growth inhibition
Protocol: as §1

[38] = tested on: EXVX; test: NCI cytotoxicity screen, Non-Small Cell Lung Cancer panel; assay type: cell-based; details: Homo sapiens; EXVX; single dose 10 µM; negative = lethal; read-out: Percent growth inhibition
Protocol: as §1

[39] = tested on: HOP-62; test: as above; assay type: cell-based; details: Homo sapiens, single dose 10 µM, negative = lethal, read-out: Percent growth inhibition
Protocol: as §1

[40] = tested on: A549/ATCC; test: as above; assay type: cell-based; details: Homo sapiens; A549/ATCC; single dose 10 µM; negative = lethal; read-out: Percent growth inhibition
Protocol: as §1

[41] = tested on: NCI-H460; test: as above; assay type: cell-based; details: Homo sapiens, single dose 10 µM, negative = lethal, read-out: Percent growth inhibition
Protocol: as §1

[42] = tested on: HOP-92; test: as above; assay type: cell-based; details: Homo sapiens, single dose 10 µM, negative = lethal, read-out: Percent growth inhibition
Protocol: as §1

[43] = tested on: CAKI-1; test: NCI cytotoxicity screen, Renal Cancer panel; assay type: cell-based; details: Homo sapiens; CAKI-1; single dose 10 µM; negative = lethal; read-out: Percent growth inhibition
Protocol: as §1

COc1ccc(-c2cn3ccnc3c(-c3ccc4c(c3)ncn4C3CCCCC3)n2)cc1 [Compound 10, 8-(1-cyclohexyl-1H-benzo[d]imidazol-5-yl)-6-(4-methoxyphenyl)imidazo[1,2-a]pyrazine]
inhibition at 10 µM [1]: < 1%
inhibition at 10 µM [2]: < 1%
inhibition at 10 µM [3]: 18.5%
inhibition at 10 µM [4]: < 1%
inhibition at 10 µM [5]: 23.3%
inhibition at 10 µM [6]: 1.19%
inhibition at 10 µM [7]: 29.7%
inhibition at 10 µM [8]: 34.2%
inhibition at 10 µM [9]: 5.82%
inhibition at 10 µM [10]: 1.93%
inhibition at 10 µM [11]: 7.75%
inhibition at 10 µM [12]: 1.45%
inhibition at 10 µM [13]: 7.51%
inhibition at 10 µM [14]: 5.37%
inhibition at 10 µM [15]: < 1%
inhibition at 10 µM [16]: < 1%
inhibition at 10 µM [17]: 2.27%
inhibition at 10 µM [18]: 5.69%
inhibition at 10 µM [19]: 8.55%
inhibition at 10 µM [20]: 19.7%
inhibition at 10 µM [21]: < 1%
inhibition at 10 µM [22]: < 1%
inhibition at 10 µM [23]: 46.2%
inhibition at 10 µM [24]: < 1%
inhibition at 10 µM [25]: 33.5%
inhibition at 10 µM [26]: < 1%
inhibition at 10 µM [27]: < 1%
inhibition at 10 µM [28]: 10.9%
melting point: 196 to 199 °C
logP [29]: 1.44
inhibition at 10 µM [30]: 12.7%
inhibition at 10 µM [31]: < 1%
inhibition at 10 µM [32]: 1.25%
inhibition at 10 µM [33]: 9.96%
inhibition at 10 µM [34]: 7.86%
inhibition at 10 µM [35]: < 1%
inhibition at 10 µM [36]: < 1%
inhibition at 10 µM [37]: 22.6%
inhibition at 10 µM [38]: 7.85%
inhibition at 10 µM [39]: 3.33%
inhibition at 10 µM [40]: 7.33%
inhibition at 10 µM [41]: 2.9%
inhibition at 10 µM [42]: 17.4%

Fc1ccc(-c2cn3ccnc3c(-c3ccc4c(c3)ncn4C3CCCCC3)n2)cc1 [Compound 13, 8-(1-cyclohexyl-1H-benzo[d]imidazol-5-yl)-6-(4-fluorophenyl)imidazo[1,2-a]pyrazine]
inhibition at 10 µM [1]: 7.09%
inhibition at 10 µM [2]: 4.49%
inhibition at 10 µM [3]: 22.6%
inhibition at 10 µM [4]: < 1%
inhibition at 10 µM [5]: 5.28%
inhibition at 10 µM [6]: < 1%
inhibition at 10 µM [7]: 20.8%
inhibition at 10 µM [8]: 11.4%
inhibition at 10 µM [9]: 6.4%
inhibition at 10 µM [10]: 2.36%
inhibition at 10 µM [11]: 3.09%
inhibition at 10 µM [12]: < 1%
inhibition at 10 µM [13]: < 1%
inhibition at 10 µM [14]: < 1%
inhibition at 10 µM [15]: < 1%
inhibition at 10 µM [16]: < 1%
inhibition at 10 µM [17]: 7.3%
inhibition at 10 µM [18]: < 1%
inhibition at 10 µM [19]: < 1%
inhibition at 10 µM [20]: 9.59%
inhibition at 10 µM [21]: < 1%
inhibition at 10 µM [22]: < 1%
inhibition at 10 µM [23]: 10.1%
inhibition at 10 µM [24]: 36%
inhibition at 10 µM [25]: 22.8%
inhibition at 10 µM [26]: < 1%
inhibition at 10 µM [43]: < 1%
inhibition at 10 µM [28]: < 1%
melting point: 187 to 189 °C
logP [29]: 1.26
inhibition at 10 µM [30]: 3.12%
inhibition at 10 µM [31]: < 1%
inhibition at 10 µM [32]: 2.44%
inhibition at 10 µM [33]: 0.73%
inhibition at 10 µM [34]: 0.76%
inhibition at 10 µM [35]: < 1%
inhibition at 10 µM [36]: < 1%
inhibition at 10 µM [37]: 10.2%
inhibition at 10 µM [38]: < 1%
inhibition at 10 µM [39]: 13.2%
inhibition at 10 µM [40]: 8.95%
inhibition at 10 µM [41]: < 1%
inhibition at 10 µM [42]: 7.05%
